The values that follow come from patent US9744160B2, “Pharmaceutical compositions comprising sulbactam and beta-lactamase inhibitor” (WOCKHARDT LIMITED, priority 2011, dated 2017).

The test system of this assay is A. baumanii 13305. Description: MIC by agar dilution (CLSI). The class given is cell-based. (In general: Agar dilution tests growth on a series of plates holding different concentrations.)

Experimental: In a typical study, overnight grown bacterial cultures were diluted appropriately and inoculated on the agar media containing doubling dilutions of composition or pharmaceutically active ingredients disclosed herein. Observation for growth or no growth was performed after 16-20 hours of incubation at 35±2° C. in ambient air. The overall procedure was performed as per Clinical and Laboratory Standards Institute (CLSI) recommendations (Clinical and Laboratory Standards Institute (CLSI), performance Standards for Antimicrobial Susceptibility Testing, 20th Informational Supplement, M 100-S20, Volume 30, No. 1, 2010).

Regarding `CO/N=C(\C(=O)N[C@@H]1C(=O)N2C(C(=O)[O-])=C(C[N+]3(C)CCCC3)CS[C@H]12)c1csc(N)n1` [Cefepime], the “MIC of cefepime in presence of Sulbactam (4 to 8 mcg/ml)” value was 4 µg/mL.
